These results are taken from ChEMBL document CHEMBL1159171, “Symmetry-based HIV protease inhibitors containing a hydroxy bis-urea isostere” (Bioorg Med Chem Lett, 1994).

SMILES strings stand for the structures.

By inhibition is commonly meant the drop in the measured response relative to a control, in per cent.

The target in the experiment is Human immunodeficiency virus type 1 protease (Human immunodeficiency virus 1) (UniProt Q72874). The experiment can be described thus: In vitro inhibitory activity against HIV-1 protease at a concentration of 10 uM.
In turn, `CON[C@H](C(=O)NC(=O)N(Cc1ccccc1)CC(O)CN(Cc1ccccc1)C(=O)NC(=O)[C@@H](NOC)C(C)C)C(C)C` showed an inhibition of 36%.
To `O=C(NCc1ccccc1)N(Cc1ccccc1)CC(O)CN(Cc1ccccc1)C(=O)NCc1ccccc1` belongs 19%.
Then `CC(C)CN(CC(O)CN(CC(C)C)C(=O)NC(C)(C)C)C(=O)NC(C)(C)C`, with 25%; and `CC(C)(C)NC(=O)N(Cc1ccccc1)CC(O)CN(Cc1ccccc1)C(=O)NC(C)(C)C`, with 50%; and `CCCNC(=O)N(Cc1ccccc1)CC(O)CN(Cc1ccccc1)C(=O)NCCC`, with 38%.
To `CC(C)(C)NC(=O)N(Cc1ccccc1)C[C@H](O)[C@@H](O)CN(Cc1ccccc1)C(=O)NC(C)(C)C` belongs 78%; to `CC(C)[C@H](NC(=O)OCc1ccccc1)C(=O)N[C@@H](Cc1ccccc1)C(O)[C@H](Cc1ccccc1)NC(=O)[C@@H](NC(=O)OCc1ccccc1)C(C)C`, 3%; to `CC(C)(C)NC(=O)N(Cc1cccc(O)c1)CC(O)CN(Cc1cccc(O)c1)C(=O)NC(C)(C)C`, 67%.
`CC(C)(C)N(Cc1ccccc1)C(=O)NCC(O)CNC(=O)N(Cc1ccccc1)C(C)(C)C` displayed an inhibition of 17.5%.
Then `O=C(Nc1ccccc1)N(Cc1ccccc1)CC(O)CN(Cc1ccccc1)C(=O)Nc1ccccc1`, with 16%; and `CC(C)(C)NC(=O)NCC(O)CNC(=O)NC(C)(C)C`, with 8%.
To `CC(C)(C)NC(=O)N(Cc1cccc(O)c1O)CC(O)CN(Cc1cccc(O)c1O)C(=O)NC(C)(C)C` belongs 67%; to `CC(C)(C)NC(=O)N(Cc1ccccc1O)CC(O)CN(Cc1ccccc1O)C(=O)NC(C)(C)C`, 11%.
To `CON[C@@H](C(=O)NC(=O)N(Cc1ccccc1)CC(O)CN(Cc1ccccc1)C(=O)NC(=O)[C@H](NOC)C(C)C)C(C)C` (single isomer, unassigned) belongs 16%; to `CC(C)(C)OC(=O)NC(=O)N(Cc1ccccc1)CC(O)CN(Cc1ccccc1)C(=O)NC(=O)OC(C)(C)C`, 28%.
